Patent US7220775B2, “Compound useful for the treatment of neuropathic pain” (H. Lundbeck A/S, priority 2002, dated 2007)

Legend:
[1] = tested on: neuropathic rats (chronic constriction nerve injury); assay: Chronic constriction nerve injury model of neuropathic pain: thermal hyperalgesia (Thermal Plantar Test); type: in vivo, rat
Method: The aim of this study was to assess the potential analgesic effects of Example 92 following intraperitoneal administration at the doses of 3, 10 and 30 mg/kg, respectively, in an animal model of neuropathic pain. A peripheral mononeuropathy was induced in the right hind limb of rats following a chronic constriction nerve injury (Bennett and Xie, 1988), and the development of mechanical allodynia and thermal hyperalgesia was monitored using established behavioral tests (Attal, N., et al., 1990; Hargreaves, K., et al., 1988).
Male Sprague-Dawley rats within the weight range of 200-225 g, and approximate age 7-9 weeks, were allowed to acclimate for a minimum of 6 days prior to the start of the behavioral testing.
All rats underwent a chronic constriction nerve injury, and of these, those that successfully developed allodynia and hyperalgesia were allocated to treatment groups.
There were 5 separate treatment groups (with a minimum of 10 rats per group). The treatment groups were as follows: • Group C received Morphine at 10 mg/kg (n=10) • Group D received Vehicle for Example 92* at 1 ml/kg (n=10) (* 100% DMSO) • Group E received Example 92 at 30 mg/kg (n=10) • Group F received Example 92 at 3 mg/kg (n=10) • Group G received Example 92 at 10 mg/kg (n=10)
The dose volume for all treatments was 1 ml/kg. Each rat received a single i.p. dose of the test substance, reference substance or vehicle on Day 12 PO. Test substance and vehicle dosing solutions were encoded (C-G) so that the observers were unaware of the identity of the treatment groups.
The behavioral tests (Von Frey filament and Thermal Plantar Tests—see below) were performed on all rats on 3 separate days prior to […], to establish baseline values. The pre-surgery baseline values were calculated as the mean of the last 2 days testing (the data from the first day of testing were not included as this was classed as part of the acclimating period). The sequence of tests was always mechanical allodynia (Von Frey Test) followed by thermal hyperalgesia (Thermal Plantar Test), with a minimum 5 min period allowed between the 2 tests.
Each rat was placed in a clear plastic chamber with a glass floor and allowed a short period to acclimatize to the new environment (approximately 5 min.). The animals were then challenged with a radiant Infrared (IR) heat source, directed at the plantar surface of the hind paw from below, and the withdrawal latency of both the ipsilateral and contralateral hind paws was evaluated. The infrared intensity was set at IR50 and the maximum length of exposure to the IR source was 18 s. Non-responding animals were allocated a withdrawal latency of 18 s.
The animals were surgically prepared over 5 days. […]

Human 5HT1D receptor = target: T1, Human 5HT1D receptor (Homo sapiens, UniProt P28221); assay: 5HT1D receptor binding ([3H]-serotonin); settings: Table 8
T1 construct: expressed in transfected cells
Method: Human 5HT1B, 5HT1D, 5HT1E, 5HT1F, and 5HT7 Receptors: The cell lysates of LM(tk−) clonal cell line stably transfected with the genes encoding each of these 5HT receptor-subtypes were prepared as described above. Cell membranes were suspended in 50 mM Tris-HCl buffer (pH 7.4 at 37° C.) containing 10 mM MgCl2, 0.2 mM EDTA, 10 µM pargyline, and 0.1% ascorbate. […] Nonspecific binding was determined in the presence of 10 μM serotonin. The bound radioligand was separated by filtration through GF/B filters using a cell harvester.

[2] = target: human histamine H1 receptor (Homo sapiens, UniProt P35367); assay: Histamine H1 receptor binding; settings: Table 10
Text: (§1) Other receptors: Cell membranes expressing human dopamine D1, D2, D4 and rat D3 receptors were purchased through BioSignal, Inc. (Montreal, Canada). Binding assays using the histamine H, receptor; dopamine receptors; and α1A, α1B, and α2 adrenergic receptors may be carried out according to the procedures described in U.S. Pat. No. 5,780,485, the disclosure of which is hereby incorporated by reference in its entirety into this application. Binding assays using the dopamine D5 receptor may be carried out according to the procedures described in U.S. Pat. No. 5,882,855, the disclosure of which is hereby incorporated by reference in its entirety into this application. Binding assays for the human α1D adrenergic receptor may be carried out according to the procedures described in U.S. Pat. No. 6,156,518, the disclosure of which is hereby incorporated by reference in its entirety into this application.

[3] = target: T2, 5HT transporter (r5HT Uptk) (Rattus norvegicus, UniProt P31652); assay: Binding at native 5HT transporter; settings: Table 8
T2 construct: native, tissue-derived transporters; from tissue
Method: The binding properties of the compounds of the present invention were evaluated at one or more cloned receptors or native, tissue-derived transporters, using protocols described below.
The methods to determine binding affinity at native transporters are described in the following publications: 5HT transporter and NE transporter (Owens et al., 1997), and DA transporter (Javitch et al, 1984).

[4] = target: T3, human dopamine D1 receptor (Homo sapiens, UniProt P21728); assay: Dopamine D1 receptor binding; settings: Table 10
T3 construct: purchased BioSignal, Inc. (Montreal, Canada)
Text: as §1

[5] = target: human dopamine D5 receptor (Homo sapiens, UniProt P21918); assay: Dopamine D5 receptor binding; settings: Table 10
Text: as §1

[6] = target: T4, human dopamine D2 receptor (Homo sapiens, UniProt P14416); assay: Dopamine D2 receptor binding; settings: Table 10
T4 construct: purchased BioSignal, Inc. (Montreal, Canada)
Text: as §1

T3 sequence (P21728 whole entry): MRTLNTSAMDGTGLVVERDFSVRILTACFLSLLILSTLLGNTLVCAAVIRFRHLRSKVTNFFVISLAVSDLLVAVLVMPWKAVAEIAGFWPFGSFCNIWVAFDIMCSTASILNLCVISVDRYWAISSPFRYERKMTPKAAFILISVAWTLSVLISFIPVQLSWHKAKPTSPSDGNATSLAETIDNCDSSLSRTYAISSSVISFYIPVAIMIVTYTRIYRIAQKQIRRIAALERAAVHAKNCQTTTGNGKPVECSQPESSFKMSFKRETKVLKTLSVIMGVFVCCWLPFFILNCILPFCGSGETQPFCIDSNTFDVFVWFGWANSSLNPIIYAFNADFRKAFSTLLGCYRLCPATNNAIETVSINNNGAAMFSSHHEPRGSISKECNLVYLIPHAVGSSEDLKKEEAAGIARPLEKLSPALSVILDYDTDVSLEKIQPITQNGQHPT
T1 sequence (P28221 whole entry): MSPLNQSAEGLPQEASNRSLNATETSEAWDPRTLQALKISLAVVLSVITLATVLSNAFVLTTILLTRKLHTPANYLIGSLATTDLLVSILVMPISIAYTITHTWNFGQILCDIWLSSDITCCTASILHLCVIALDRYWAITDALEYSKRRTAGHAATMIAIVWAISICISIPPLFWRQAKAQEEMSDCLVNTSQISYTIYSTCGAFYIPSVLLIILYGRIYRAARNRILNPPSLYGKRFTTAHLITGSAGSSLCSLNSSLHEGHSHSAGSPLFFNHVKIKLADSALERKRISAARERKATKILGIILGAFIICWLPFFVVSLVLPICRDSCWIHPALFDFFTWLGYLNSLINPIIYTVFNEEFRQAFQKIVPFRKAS
T4 sequence (P14416 whole entry): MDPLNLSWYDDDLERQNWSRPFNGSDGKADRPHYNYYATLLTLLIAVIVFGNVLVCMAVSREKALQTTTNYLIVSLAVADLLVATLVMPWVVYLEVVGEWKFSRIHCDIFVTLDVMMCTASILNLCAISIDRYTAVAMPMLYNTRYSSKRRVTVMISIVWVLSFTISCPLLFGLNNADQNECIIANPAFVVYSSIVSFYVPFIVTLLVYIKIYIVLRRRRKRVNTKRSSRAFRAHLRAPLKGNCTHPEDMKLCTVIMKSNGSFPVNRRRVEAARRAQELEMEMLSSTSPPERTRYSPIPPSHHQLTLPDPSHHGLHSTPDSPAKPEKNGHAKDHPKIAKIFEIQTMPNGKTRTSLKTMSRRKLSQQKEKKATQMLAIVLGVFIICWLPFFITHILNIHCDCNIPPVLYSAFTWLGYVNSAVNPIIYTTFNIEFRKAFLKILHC
human histamine H1 receptor, sequence (P35367 whole entry): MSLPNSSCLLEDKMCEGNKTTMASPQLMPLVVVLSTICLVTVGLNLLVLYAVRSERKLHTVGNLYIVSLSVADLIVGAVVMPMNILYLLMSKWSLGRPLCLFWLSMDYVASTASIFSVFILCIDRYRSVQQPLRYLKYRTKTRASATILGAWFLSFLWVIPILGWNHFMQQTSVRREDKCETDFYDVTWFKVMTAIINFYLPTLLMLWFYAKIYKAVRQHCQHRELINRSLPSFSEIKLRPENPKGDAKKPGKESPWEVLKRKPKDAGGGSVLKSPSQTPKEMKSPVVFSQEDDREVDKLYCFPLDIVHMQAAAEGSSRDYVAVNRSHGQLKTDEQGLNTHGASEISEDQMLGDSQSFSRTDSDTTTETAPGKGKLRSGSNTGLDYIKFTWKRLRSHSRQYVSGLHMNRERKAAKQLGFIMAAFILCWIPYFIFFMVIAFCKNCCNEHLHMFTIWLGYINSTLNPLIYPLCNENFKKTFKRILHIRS
T2 sequence (P31652 whole entry): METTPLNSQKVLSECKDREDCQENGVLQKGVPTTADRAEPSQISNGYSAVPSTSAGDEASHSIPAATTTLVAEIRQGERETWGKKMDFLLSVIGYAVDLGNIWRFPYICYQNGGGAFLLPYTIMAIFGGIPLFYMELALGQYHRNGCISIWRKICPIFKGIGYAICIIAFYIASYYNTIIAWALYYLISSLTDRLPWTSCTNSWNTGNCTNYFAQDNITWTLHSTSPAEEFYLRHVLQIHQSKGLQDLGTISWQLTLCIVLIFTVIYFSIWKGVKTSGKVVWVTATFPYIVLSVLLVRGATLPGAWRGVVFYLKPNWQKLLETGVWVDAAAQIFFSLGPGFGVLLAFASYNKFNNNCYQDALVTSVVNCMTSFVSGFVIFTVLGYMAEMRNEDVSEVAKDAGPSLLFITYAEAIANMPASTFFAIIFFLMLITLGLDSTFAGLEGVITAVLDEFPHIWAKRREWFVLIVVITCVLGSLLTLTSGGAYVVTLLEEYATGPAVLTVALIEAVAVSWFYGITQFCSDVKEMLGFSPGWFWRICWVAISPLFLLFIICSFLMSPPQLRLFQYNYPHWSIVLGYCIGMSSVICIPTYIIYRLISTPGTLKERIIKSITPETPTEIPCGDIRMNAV
human dopamine D5 receptor, sequence (P21918 whole entry): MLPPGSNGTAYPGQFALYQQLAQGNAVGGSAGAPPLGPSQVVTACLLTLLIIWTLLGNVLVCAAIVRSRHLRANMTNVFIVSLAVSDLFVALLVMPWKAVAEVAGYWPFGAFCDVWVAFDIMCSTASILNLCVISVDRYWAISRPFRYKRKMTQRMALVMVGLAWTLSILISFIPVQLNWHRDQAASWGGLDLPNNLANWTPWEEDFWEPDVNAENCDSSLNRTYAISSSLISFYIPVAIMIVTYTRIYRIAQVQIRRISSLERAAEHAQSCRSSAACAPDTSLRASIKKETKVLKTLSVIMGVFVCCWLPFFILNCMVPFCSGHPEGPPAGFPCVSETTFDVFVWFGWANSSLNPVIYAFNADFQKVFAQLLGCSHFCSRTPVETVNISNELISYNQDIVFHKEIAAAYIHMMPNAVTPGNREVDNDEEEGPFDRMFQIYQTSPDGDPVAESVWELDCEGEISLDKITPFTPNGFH

## O=C1C(=Nc2cccc(C(F)(F)F)c2)c2ccccc2N1c1ccccc1 [Example 92, 1-PHENYL-3-[[3-(TRIFLUOROMETHYL)PHENYL]IMINO]-1,3-DIHYDRO-2H-INDOL-2-ONE]
[1]; 3, 10, 30 mg/kg i.p., any time point
  responses of the uninjured (contralateral) left paw (thermal plantar) vs vehicle: No significant changes
[1]; 3, 10 and 30 mg/kg i.p., approx. 40 and 100 min PD
  effect on withdrawal latency of the nerve-injured hind paw to the thermal plantar device: no significant effect
Human 5HT1D receptor
  selectivity ratio h5HT1D (Ki h5HT1D / Ki hGAL3): >100
[2]
  selectivity ratio hH1 (Ki hH1 / Ki hGAL3): >100
[3]
  selectivity ratio r5HT Uptk (Ki r5HT Uptk / Ki hGAL3): >100
[4]
  selectivity ratio hD1 (Ki hD1 / Ki hGAL3): >100
[5]
  selectivity ratio hD5 (Ki hD5 / Ki hGAL3): >100
[6]
  selectivity ratio hD2 (Ki hD2 / Ki hGAL3): >100
